Measurements published in US20250034116A1, “1,4-DIHETEROCYCLIC SUBSTITUTED AROMATIC RING OR AROMATIC HETEROCYCLIC COMPOUND AND USE THEREOF” (BeBetter Med Inc., priority 2022, published 2025).

Tests used:
[1] = target: recombinant CYP4F2 (rCYP4F2) (Homo sapiens (Human), UniProt P78329); experiment: Inhibition of 20-HETE production by recombinant CYP4F2; type: biochemical
Protocol: (§1) Experimental principle: The inhibitory activity of 20-HETE production is evaluated by testing the inhibitory effects of the compound on human liver microsomes (HLM), rat liver microsomes (RLM), mouse liver microsomes (MLM), or […] CYP4 subtype enzymes (CYP4F2). This assay employs HLM, RLM, or MLM along with recombinant CYP4F2 (rCYP4F2) and recombinant CYP4A11 (rCYP4A11), which are […] CYP4 subtype enzymes, to detect the effects of the test compound at different concentrations on the metabolic rate of enzyme-specific substrates, to determine the inhibitory effects of the test compound on CYP enzymes in HLM, RLM, or MLM.
(§2) Experimental methods: Dissolve the test compound in DMSO, and subsequently dilute it with an acetonitrile and DMSO mixture (3:1). Add 2 μl of varying concentrations of the test compound and 100 μl of potassium phosphate buffer containing either liver microsomes or recombinant enzymes to a 96-well plate. After mixing well, transfer 30 μl to another well (in duplicate), add 15 μl of 400 μM substrate solution, and mix well again. Preheat at 37° C. for 10 minutes, and then add 15 μl of 6 mM NADPH and incubate at 37° C. for 25 minutes. After 25 minutes, add 160 μl of acetonitrile solution (containing 0.1 μg/ml internal standard) to stop the reaction. Mix well, centrifuge at 3500 g for 15 minutes, and then analyze the supernatant using LC-MS/MS.
(§3) Plot the compound concentration on the x-axis and the inhibition rate on the y-axis to draw the curve. Use GraphPad Prism 5 software to fit the curve and calculate the IC50. The formula is Y=Bottom+(Top−Bottom)/(1+10^((Log IC50−X)×HillSlope)). X represents the logarithmic concentration of the inhibitor, and Y represents the relative enzyme activity at a given inhibitor concentration (relative to the condition without the inhibitor).
(§4) Calculate the inhibition percentages at concentrations of 1000 nM, 500 nM, or 100 nM as well as the half-maximal inhibitory concentration (IC50) of the test compound from the above experiment.

[2] = system: 20-HETE; experiment: Experiment 6: level of 20-HETE in DIO rat model; type: in vivo, Male SD rats; conditions: DIO rats, single oral dose 25 mg/kg, 8 hours; most pronounced in the kidneys
Protocol: Experiment 6 was to investigate the effect of compound 2 on regulating the level of 20-HETE in a diet-induced obesity (DIO) rat model. Male SD rats were purchased from Guangdong Vital River Laboratory Animal Technology Co., Ltd. and housed in a barrier system animal facility. After 14 weeks of high-fat diet (HFD) induction, compound 2 was administered at a dose of 25 mg/kg once, and samples were collected after 8 hours to detect the level of 20-HETE. A solvent control group was also set up simultaneously, with 3 animals per group.

[3] = system: CYP enzymes in mouse liver microsomes (MLM); experiment: Inhibition of 20-HETE production in mouse liver microsomes (MLM); type: biochemical
How it was run: (§5)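 LC-MS/MS read-out of 20-HETE formation, expressed as activity relative to no-inhibitor control and fitted to a Hill equation for IC50; percent inhibition also given at 1000, 500 or 100 nM. Enzyme sources: recombinant CYP4F2, recombinant CYP4A11, or human or mouse liver microsomes. Each is combined with compound and substrate (400 μM solution) and warmed 10 min at 37 °C, then incubated 25 min at 37 °C after adding NADPH (6 mM solution).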

[4] = system: diet-induced obesity (DIO) mouse model; experiment: Experiment 3: compound 2, weight loss and blood glucose lowering in DIO mouse model; type: in vivo, Male C57BL/6J mice
Description: Experiment 3 was to study the effects of compound 2 on weight loss and blood glucose lowering in a diet-induced obesity (DIO) mouse model. Male C57BL/6J mice were purchased from Zhuhai BST Biotechnology Co., Ltd. and housed in a barrier system animal facility. Animals were randomly divided into 3 groups: normal control group, DIO model control group, and DIO model compound 2 treatment group, with 6-8 animals per group. The model control group and treatment group were first fed with high-fat diet (HFD) for 9 weeks (day 63), and then the treatment group was orally administered with compound 2 at a dose of 30 mg/kg once daily for 8 consecutive weeks, while continuing to receive HFD. Animal weights were measured weekly, and on the last day of treatment, they were fasted overnight but allowed access to water before an oral glucose tolerance test (OGTT).

[5] = Pharmacokinetic (PK) experiment, oral administration in rats; type: in vivo, Male SD rats; conditions: 20 mg/kg
How it was run: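 Fasted male SD rats (180-250 g) received 20 mg/kg orally in 30% sulfobutylether-β-cyclodextrin. Tail-vein blood sampled 15 min to 24 h post-dose into K2-EDTA; plasma protein-precipitated with acetonitrile containing internal standard and analysed by LC-MS/MS.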

[6] = system: CYP enzymes in rat liver microsomes (RLM); experiment: Inhibition of 20-HETE production in rat liver microsomes (RLM); type: biochemical
How it was run: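 Test compounds were dissolved in DMSO, diluted in acetonitrile/DMSO (3:1), and 2 μl was mixed with 100 μl potassium phosphate buffer containing rat liver microsomes in a 96-well plate. Duplicate 30 μl aliquots received 15 μl of 400 μM substrate, were preheated at 37° C. for 10 minutes, then started with 15 μl of 6 mM NADPH for 25 minutes. LC-MS/MS measured 20-HETE formation.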

[7] = system: diet-induced obesity (DIO) mouse model; experiment: Experiment 2: compound 2 and 4, weight loss and blood glucose lowering in DIO mouse model; type: in vivo, Male C57BL/6J mice
Description: Experiment 2 was to study the effects of compound 2 and 4 on weight loss and blood glucose lowering in a diet-induced obesity (DIO) mouse model. Male C57BL/6J mice were purchased from Zhuhai BST Biotechnology Co., Ltd. and housed in a barrier system animal facility. Animals were randomly divided into 4 groups: normal control group, DIO model control group, DIO model compound 2 treatment group, and DIO model compound 4 treatment group, with 4-5 animals per group. The model control group and treatment groups were first fed with high-fat diet (HFD) for 9 weeks (day 63), and then the treatment groups were orally administered with compound 2 or compound 4 at a dose of 50 mg/kg once daily for 4 consecutive weeks, while continuing to receive HFD. Animal weights were measured weekly, and on the last day of treatment, they were fasted overnight but allowed access to water before an oral glucose tolerance test (OGTT).

[8] = target: recombinant CYP4A11 (rCYP4A11) (Homo sapiens (Human), UniProt Q02928); experiment: Inhibition of 20-HETE production by recombinant CYP4A11; type: biochemical
Protocol: as §1, §2, §3, §4

[9] = system: CYP enzymes in human liver microsomes (HLM); experiment: Inhibition of 20-HETE production in human liver microsomes (HLM); type: biochemical
How it was run: as §5

[10] = 30 mg/kg orally once daily for 8 weeks, DIO mice
[11] = 50 mg/kg orally once daily for 4 weeks, DIO mice

Sequence of recombinant CYP4A11 (rCYP4A11) (Q02928 5-519): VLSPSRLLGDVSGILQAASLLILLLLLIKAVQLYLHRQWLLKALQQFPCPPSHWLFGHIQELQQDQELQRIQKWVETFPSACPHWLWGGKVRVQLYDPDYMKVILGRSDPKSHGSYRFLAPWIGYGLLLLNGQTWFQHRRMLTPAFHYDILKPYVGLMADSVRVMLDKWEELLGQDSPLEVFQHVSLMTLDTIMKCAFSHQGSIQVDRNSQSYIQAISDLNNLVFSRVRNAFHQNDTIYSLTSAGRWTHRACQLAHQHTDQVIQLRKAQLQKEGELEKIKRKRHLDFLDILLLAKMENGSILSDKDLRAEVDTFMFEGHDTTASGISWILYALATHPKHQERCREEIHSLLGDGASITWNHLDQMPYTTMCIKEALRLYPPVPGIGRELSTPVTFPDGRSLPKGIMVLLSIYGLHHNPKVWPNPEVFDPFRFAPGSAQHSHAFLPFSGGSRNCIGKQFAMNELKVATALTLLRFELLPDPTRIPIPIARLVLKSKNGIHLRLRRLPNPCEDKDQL
Sequence of recombinant CYP4F2 (rCYP4F2) (P78329 5-520): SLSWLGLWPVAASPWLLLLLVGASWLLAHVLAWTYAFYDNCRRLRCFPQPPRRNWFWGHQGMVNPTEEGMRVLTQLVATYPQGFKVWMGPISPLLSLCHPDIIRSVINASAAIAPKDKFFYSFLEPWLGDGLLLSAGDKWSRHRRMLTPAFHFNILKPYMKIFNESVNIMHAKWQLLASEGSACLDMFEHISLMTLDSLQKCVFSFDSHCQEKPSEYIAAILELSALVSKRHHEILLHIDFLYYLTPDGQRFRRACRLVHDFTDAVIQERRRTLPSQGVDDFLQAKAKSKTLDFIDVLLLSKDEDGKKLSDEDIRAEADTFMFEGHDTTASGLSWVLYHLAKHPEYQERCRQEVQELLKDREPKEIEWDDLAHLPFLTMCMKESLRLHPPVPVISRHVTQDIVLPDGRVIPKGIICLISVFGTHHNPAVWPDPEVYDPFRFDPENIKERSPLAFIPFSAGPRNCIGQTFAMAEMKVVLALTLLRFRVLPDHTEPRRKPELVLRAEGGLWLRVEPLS

- IC50 [1]: 15.8 nM
- IC50 [3]: 1340 nM
- AUC(0-inf) ([5]; male, SD, rat, plasma): 120 µg·h/mL
- Cmax ([5]; male, SD, rat, plasma): 10100 ng/mL
- Tmax ([5]; male, SD, rat, plasma): 3.33 h
- half-life ([5]; male, SD, rat, plasma): 5.2 h
- AUC(0-t) ([5]; male, SD, rat, plasma, read-out: AUC0-24): 115 µg·h/mL
- IC50 [6]: 103 nM
- RLM (% inh @ 500 nM) ([6]; 500 nM): 59.38%
- IC50 [8]: 33.2 nM
- IC50 [9]: 28.7 nM
- HLM (% inh @ 500 nM) ([9]; 500 nM): 79.50%
Structure (SMILES): O=C1CCCN1CC1CCN(c2ccc(-c3cn[nH]c3)cc2F)CC1 [Compound 2, 1-((1-(2-fluoro-4-(1H-pyrazol-4-yl)phenyl)piperidin-4-yl)methyl)pyrrolidin-2-one]
- 20-HETE levels in the liver, kidneys, and brain tissues compared to the solvent control group [2]: varying degrees of decrease
- fasting blood glucose [4, 10]: inhibit the increase in fasting blood glucose
- glucose metabolism (OGTT) [4, 10]: enhance their glucose metabolism
- food intake compared to the DIO model control group ([4]; 30 mg/kg orally once daily, after 2 weeks): no difference
- difference in weight gain relative to the DIO model control group ([4]; 30 mg/kg orally once daily, after 8 weeks): 47.1%
- body weight decrease, of pre-administration weight ([4]; 30 mg/kg orally once daily, after 8 weeks, DIO mice): 20.8%
- food intake ([4]; 30 mg/kg orally once daily, first 2 weeks of administration): decreased
- absorption and blood exposure after oral administration (in words) [5]: well absorbed and exhibit high blood exposure
- fasting blood glucose [7, 11]: inhibit the increase in fasting blood glucose
- glucose metabolism (OGTT) [7, 11]: enhance glucose metabolism
- body weight decrease, of the pre-administration weight ([7]; 50 mg/kg orally once daily, first week of administration, after 9 weeks HFD): 12%-16%
